Assay results reported in PMC8042770, “Odorant Receptors for Detecting Flowering Plant Cues Are Functionally Conserved across Moths and Butterflies” (Molecular Biology and Evolution, 2020).
Where two headings read alike, the source gives them in different places.

Tests used:
HarmOR52 = HarmOR52 (Helicoverpa armigera, UniProt A0A7T3KAH2); assay: Xenopus oocyte two-electrode voltage clamp, HarmOR52 + Orco; type: cell-based
Protocol: (§1) In order to expand our analysis on the response properties of HarmORs, we conducted dose–response analyses for the 28 functional HarmORs. […] Six HarmORs (OR3, 22, 48, 50, 56, and 66) could not be activated by any ligand at 10^−5 M. For the other 22 HarmORs, dose–response curves were generated and EC50 values of their major ligands were calculated (fig. 2A and supplementary table S2, Supplementary Material online). The HarmOR repertoire was highly efficient in terpene detection, since the lowest EC50 values were obtained for such compounds. Many of these terpenes have been proposed to be defensive chemicals of plants. […] DMNT is also one of the oviposition deterring compounds found in larval frass of some Lepidoptera species such as S. littoralis ([Anderson et al. 1993]).
(§2) Functional characterization of individual ORs was performed by heterologous expression in Xenopus oocytes combined with a two-electrode voltage-clamp system ([Wang et al. 2010]). Briefly, the full-length gene of each OR and Orco were subcloned into the eukaryotic expression vector pT7TS. cRNAs were generated from linearized expression vectors using the mMESSAGE mMACHINE T7 kit (Ambion, Austin, TX). Then, the cRNA mixture of ORx and Orco (27.6 ng each) was injected (Nanoliter 2010, WPI Inc., Sarasota, FL) into oocytes (stage V–VII). The respective Orcos of different species were used for functional studies of OR42 orthologs except for the four butterfly species (V. tameamea, P. xuthus, D. plexippus, and P. rapae), in which we used the Orco from P. xuthus. After incubation in nutrient solution at 18 °C for 3–5 days, the response profile of each oocyte to multiple plant odorants was recorded via a two-electrode voltage clamp (OC-725C oocyte clamp, Warner Instruments, Hamden, CT) at a holding potential of −80 mV. Data were acquired by using a Digidata 1440 A and were analyzed by pCLAMP 10.2 software (Axon Instruments Inc., Union City, CA).
(§3) Stock solutions of each odorant were prepared at 1 M using DMSO as a solvent, and each odorant was diluted in 1× Ringer’s solution to the indicated concentrations for electrophysiological recording. For functional screening of each HarmOR, a panel of 67 odorants belonging to three types of chemical classes: terpenes, aromatics, and aliphatics (short-chain fatty acid) were used (supplementary table S1, Supplementary Material online). For functional studies of OR42 orthologs from different species, six odorants including PAA, benzaldehyde, (E)-2-hexen-1-al, cinnamaldehyde, 2-phenylethanol, and heptanal were used.

HarmOR60 = molecular target: T1, HarmOR60 (Helicoverpa armigera, UniProt A0A7T3N1B9); assay: Xenopus oocyte two-electrode voltage clamp, HarmOR60 + Orco; type: cell-based; conditions: HarmOR60; dose response in oocytes; unit M
T1 sequence (A0A7T3N1B9 1-391): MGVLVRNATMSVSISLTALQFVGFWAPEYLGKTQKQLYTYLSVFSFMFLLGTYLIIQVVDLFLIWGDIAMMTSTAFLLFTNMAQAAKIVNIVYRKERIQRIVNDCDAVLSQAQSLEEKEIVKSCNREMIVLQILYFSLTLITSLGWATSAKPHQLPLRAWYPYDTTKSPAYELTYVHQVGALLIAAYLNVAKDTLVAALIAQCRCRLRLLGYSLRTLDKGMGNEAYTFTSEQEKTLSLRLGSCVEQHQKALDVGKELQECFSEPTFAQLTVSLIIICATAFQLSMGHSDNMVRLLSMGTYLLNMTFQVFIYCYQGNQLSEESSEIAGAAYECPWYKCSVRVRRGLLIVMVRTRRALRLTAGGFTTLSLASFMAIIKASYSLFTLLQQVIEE
Protocol: as §1
as §2, with “CA). […]” for “CA).”

HarmOR40 = molecular target: T2, HarmOR40 (Helicoverpa armigera, UniProt A0A7T3KBF4); assay: Xenopus oocyte two-electrode voltage clamp, HarmOR40 + Orco; type: cell-based
T2 sequence (A0A7T3KBF4 1-401): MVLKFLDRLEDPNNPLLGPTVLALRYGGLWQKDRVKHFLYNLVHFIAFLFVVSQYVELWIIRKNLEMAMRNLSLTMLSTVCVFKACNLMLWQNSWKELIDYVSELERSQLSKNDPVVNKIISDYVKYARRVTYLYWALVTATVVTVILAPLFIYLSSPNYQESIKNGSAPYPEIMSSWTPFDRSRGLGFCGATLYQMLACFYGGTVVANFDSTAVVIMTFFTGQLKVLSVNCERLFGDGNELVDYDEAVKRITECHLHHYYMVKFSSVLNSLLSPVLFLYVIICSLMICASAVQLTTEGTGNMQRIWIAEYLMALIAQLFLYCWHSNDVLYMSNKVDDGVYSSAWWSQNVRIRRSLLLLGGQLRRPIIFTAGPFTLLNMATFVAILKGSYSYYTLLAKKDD
Protocol: as §1, §2, §3

HarmOR12 = HarmOR12 (Helicoverpa armigera, UniProt A0A172QGF5); assay: Xenopus oocyte two-electrode voltage clamp, HarmOR12 + Orco; type: cell-based
From the text: (§4) In order to expand our analysis on the response properties of HarmORs, we conducted dose–response analyses for the 28 functional HarmORs. […] Many of these terpenes have been proposed to be defensive chemicals of plants.
(§5) Briefly, the full-length gene of each OR and Orco were subcloned into the eukaryotic expression vector pT7TS. cRNAs were generated from linearized expression vectors using the mMESSAGE mMACHINE T7 kit (Ambion, Austin, TX). […] The respective Orcos of different species were used for functional studies of OR42 orthologs except for the four butterfly species (V. tameamea, P. xuthus, D. plexippus, and P. rapae), in which we used the Orco from P. xuthus.
as §3

HarmOR23 = HarmOR23 (Helicoverpa armigera, UniProt A0A7T3KAE3); assay: Xenopus oocyte two-electrode voltage clamp, HarmOR23 + Orco; type: cell-based; conditions: dose response in oocytes, unit M printed in text only
Protocol: as §1
as §2, with “CA). […]” for “CA).”

HarmOR36 = HarmOR36 (Helicoverpa armigera, UniProt A0A7T3N0K7); assay: Xenopus oocyte two-electrode voltage clamp, HarmOR36 + Orco; type: cell-based; conditions: dose response in oocytes, unit M
Protocol: as §1, §2, §3

HarmOR repertoire = assay: Responses of the 28 functional HarmORs across odorant doses (PCA of oocyte currents); type: cell-based, Helicoverpa armigera; conditions: odorant 10^−7 M
From the text: Vectors quantifying the responses of the 28 ORs to each odorant were projected onto a 3D landscape. This 3D representation captured 78.34% (10^−4 M), 65.11% (10^−5 M), 68.89% (10^−6 M), and 84.52% (10^−7 M) of the variation in the original 28D data set across different odorant concentrations. […] In addition, the capacity of the H. armigera odor space was highly dependent on odorant concentration. As the concentrations of odorants decreased, their positions in the odor space converged, with the ability to discriminate different odorants diminishing.
as §2, §3
Graphs and data statistics of OR response spectra, dose responses, EAG, and behavioral experiments were generated by Prism 7 (GraphPad Software, La Jolla, CA). A heat map was generated in Excel 2010 (Microsoft Corporation, WA). […] For tuning breadth analysis, the kurtosis values (K) were calculated by SPSS 22 (SPSS Inc., Chicago, IL) and were used to define the tuning spectra width, where smaller K values represent broader tuning spectra (fig. 1B). […]

HarmOR42 = HarmOR42 (Helicoverpa armigera, UniProt A0A7T3KAF6); assay: Xenopus oocyte two-electrode voltage clamp, HarmOR42 + Orco; type: cell-based; conditions: 67 odorants at 10^−4 M
From the text: In preliminary screening, we used a high dosage (10^−4 M) of odorants. […] Most functional ORs responded robustly to multiple odorants. The strongest response (up to ∼6,000 nanoampere, nA) we detected was that of HarmOR42 toward the aromatic compound PAA. Further, the response profiles of the 28 HarmORs appeared to be highly differentiated, with no apparent overlap in their tuning spectra (with the exception of HarmOR12 and 36) according to functional cluster analysis (fig. 1A).
as §1, §2, §3

[1] = system: H. armigera moth antennae; assay: Electroantennography (EAG), wild-type vs HarmOR42 knock-out moths; type: in vivo, Helicoverpa armigera; conditions: single odorants, 1 μg
From the text: We next conducted a loss-of-function study by generating a HarmOR42-lacking H. armigera strain by CRISPR/Cas9 targeting the first coding exon. Homozygous mutants were obtained with a large segment deletion of 203 bp and a 6-bp nonhomologous insertion in the genome (fig. 6B), introducing a premature stop codon in the coding sequence. […] The most likely hypothesis is that HarmOR42 is not the major receptor for sensing this compound in H. armigera. As a control, we tested the response of male moths to the sex pheromone component Z11-16: Ald that is not a ligand of HarmOR42. As expected, we observed no difference between the EAG responses of mutant and wild-type moths to this compound.
The antennae of 2- to 3-day-old virgin male and female moths were cut at the base of the flagellum. After removing the tip, one antenna was inserted between two glass electrodes filled with 0.1 M KCl solution. In each test, a 10-μl solution of each odorant was added onto a piece of filter paper (0.5 cm × 0.5 cm) and then inserted into a Pasteur pipette. About 100 ng/μl stock solutions of individual odorants and different doses of the mixture IAC were prepared with paraffin oil. A continuous airflow of 30 ml/s was produced by a stimulus controller (CS-55, Syntech, Kirchzarten, Germany). Odor stimulation was controlled by a puff of purified air (0.2 s at 10 ml/s airflow) from the CS-55. EAG signals were amplified with a 10× AC/DC headstage preamplifier (Syntech) and further acquired with an Intelligent Data Acquisition Controller (IDAC-4-USB, Syntech) ([Cao et al. 2016]). The signals were recorded, monitored, and analyzed using Syntech EAG-software (Syntech, Germany). The EAG response values for each compound were calculated by subtracting the value of the same antennae corresponding to a solvent blank of paraffin oil.

HarmOR27 = molecular target: T3, HarmOR27 (Helicoverpa armigera, UniProt A0A7T3KAG1); assay: Xenopus oocyte two-electrode voltage clamp, HarmOR27 + Orco; type: cell-based; conditions: HarmOR27; dose response in oocytes; unit M; read-out: EC50
T3 sequence (A0A7T3KAG1 1-426): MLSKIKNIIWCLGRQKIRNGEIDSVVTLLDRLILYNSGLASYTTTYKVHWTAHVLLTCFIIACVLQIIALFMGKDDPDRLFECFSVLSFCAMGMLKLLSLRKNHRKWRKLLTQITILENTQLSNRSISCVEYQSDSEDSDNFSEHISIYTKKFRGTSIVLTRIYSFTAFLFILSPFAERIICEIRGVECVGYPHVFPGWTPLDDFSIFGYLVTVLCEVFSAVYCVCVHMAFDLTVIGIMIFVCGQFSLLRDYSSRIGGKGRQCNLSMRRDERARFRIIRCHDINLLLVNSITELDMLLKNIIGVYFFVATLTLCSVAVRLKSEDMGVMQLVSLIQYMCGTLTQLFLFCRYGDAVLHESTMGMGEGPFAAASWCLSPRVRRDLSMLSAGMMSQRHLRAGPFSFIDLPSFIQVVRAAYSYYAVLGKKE
Protocol: as §1, §2, §3

HarmOR31 = HarmOR31 (Helicoverpa armigera, UniProt A0A7T3N2E9); assay: Xenopus oocyte two-electrode voltage clamp, HarmOR31 + Orco; type: cell-based; conditions: HarmOR31; dose response in oocytes; unit M; read-out: EC50
From the text: as §4, §5, §3

[2] = HarmOR40, dose response in oocytes, unit M printed in text only, read-out: EC50

Chain of HarmOR23 (A0A7T3KAE3 entry or part of it): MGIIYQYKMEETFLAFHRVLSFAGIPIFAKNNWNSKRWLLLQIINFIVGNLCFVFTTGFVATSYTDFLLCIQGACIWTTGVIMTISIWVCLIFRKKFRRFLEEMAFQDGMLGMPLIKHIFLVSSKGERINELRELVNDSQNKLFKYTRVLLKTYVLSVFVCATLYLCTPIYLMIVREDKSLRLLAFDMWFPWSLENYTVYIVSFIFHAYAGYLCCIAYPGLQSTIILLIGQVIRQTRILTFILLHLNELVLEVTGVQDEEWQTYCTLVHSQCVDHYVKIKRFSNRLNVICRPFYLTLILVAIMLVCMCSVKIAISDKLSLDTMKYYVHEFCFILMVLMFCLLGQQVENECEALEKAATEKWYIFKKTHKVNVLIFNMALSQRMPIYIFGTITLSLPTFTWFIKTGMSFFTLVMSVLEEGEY
Chain of HarmOR12 (A0A172QGF5 entry or part of it): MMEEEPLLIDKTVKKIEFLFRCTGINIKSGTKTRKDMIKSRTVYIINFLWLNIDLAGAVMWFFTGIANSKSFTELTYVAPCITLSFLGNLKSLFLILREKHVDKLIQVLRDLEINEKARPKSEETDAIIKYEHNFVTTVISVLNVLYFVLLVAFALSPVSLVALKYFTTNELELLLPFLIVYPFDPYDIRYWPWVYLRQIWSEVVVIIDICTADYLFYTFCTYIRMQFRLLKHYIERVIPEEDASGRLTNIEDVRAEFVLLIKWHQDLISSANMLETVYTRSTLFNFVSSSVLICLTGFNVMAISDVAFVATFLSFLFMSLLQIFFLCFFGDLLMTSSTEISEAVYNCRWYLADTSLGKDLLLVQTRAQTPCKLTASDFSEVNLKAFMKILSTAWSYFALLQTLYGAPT
Chain of HarmOR36 (A0A7T3N0K7 entry or part of it): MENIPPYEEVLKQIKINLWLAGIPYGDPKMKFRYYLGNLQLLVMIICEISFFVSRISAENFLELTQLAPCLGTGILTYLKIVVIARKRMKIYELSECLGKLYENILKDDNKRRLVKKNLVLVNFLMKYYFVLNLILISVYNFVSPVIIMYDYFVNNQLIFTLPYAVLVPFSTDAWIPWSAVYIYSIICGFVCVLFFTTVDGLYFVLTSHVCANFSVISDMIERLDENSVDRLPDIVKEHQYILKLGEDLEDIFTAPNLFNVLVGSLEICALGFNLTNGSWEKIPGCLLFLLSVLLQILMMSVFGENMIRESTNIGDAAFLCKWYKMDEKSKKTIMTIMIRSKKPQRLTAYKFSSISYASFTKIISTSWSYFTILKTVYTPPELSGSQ
Chain of HarmOR31 (A0A7T3N2E9 entry or part of it): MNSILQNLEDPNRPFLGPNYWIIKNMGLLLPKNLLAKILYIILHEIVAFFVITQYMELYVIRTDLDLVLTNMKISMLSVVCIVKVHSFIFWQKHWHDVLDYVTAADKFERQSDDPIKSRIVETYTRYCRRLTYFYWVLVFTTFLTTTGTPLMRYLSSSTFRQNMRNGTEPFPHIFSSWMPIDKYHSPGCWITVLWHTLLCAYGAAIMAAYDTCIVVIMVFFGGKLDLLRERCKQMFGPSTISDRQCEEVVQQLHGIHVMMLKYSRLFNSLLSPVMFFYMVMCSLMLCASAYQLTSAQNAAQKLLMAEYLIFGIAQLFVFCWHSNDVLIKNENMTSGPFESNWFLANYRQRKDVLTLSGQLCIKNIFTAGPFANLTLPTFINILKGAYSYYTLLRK
Chain of HarmOR42 (A0A7T3KAF6 entry or part of it): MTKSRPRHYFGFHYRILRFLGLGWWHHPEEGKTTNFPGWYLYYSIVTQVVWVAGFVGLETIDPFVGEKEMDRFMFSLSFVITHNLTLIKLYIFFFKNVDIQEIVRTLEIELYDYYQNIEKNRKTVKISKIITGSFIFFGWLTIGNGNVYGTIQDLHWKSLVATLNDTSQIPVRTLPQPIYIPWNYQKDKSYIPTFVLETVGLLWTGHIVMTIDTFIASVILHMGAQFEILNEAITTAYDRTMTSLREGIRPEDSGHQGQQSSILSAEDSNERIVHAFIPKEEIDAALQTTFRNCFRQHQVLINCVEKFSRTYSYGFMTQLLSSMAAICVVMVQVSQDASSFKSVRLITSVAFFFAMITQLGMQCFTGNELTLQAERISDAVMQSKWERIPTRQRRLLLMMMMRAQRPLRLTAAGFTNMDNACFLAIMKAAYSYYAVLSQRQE
Chain of HarmOR52 (A0A7T3KAH2 entry or part of it): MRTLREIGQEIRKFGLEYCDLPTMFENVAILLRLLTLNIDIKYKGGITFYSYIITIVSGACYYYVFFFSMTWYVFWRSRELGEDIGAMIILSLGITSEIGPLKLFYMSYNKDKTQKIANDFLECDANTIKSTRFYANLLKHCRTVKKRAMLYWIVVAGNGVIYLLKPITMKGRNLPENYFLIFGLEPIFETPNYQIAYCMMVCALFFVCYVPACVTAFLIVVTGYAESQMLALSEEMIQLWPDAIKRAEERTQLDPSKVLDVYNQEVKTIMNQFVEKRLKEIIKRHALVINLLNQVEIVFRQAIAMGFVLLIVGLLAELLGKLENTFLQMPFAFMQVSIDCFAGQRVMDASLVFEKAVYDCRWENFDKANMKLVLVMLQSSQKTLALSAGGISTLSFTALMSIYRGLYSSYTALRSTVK

OCc1ccccc1 [Benzyl alcohol]
EC50 (HarmOR52): 6.87 µM

C[C@@H]1CC[C@H]2C(C)(C)[C@H]3C[C@@]12CC[C@@]3(C)O [Cedrol]
EC50 (HarmOR60): 8.6 µM

CC(C)=CCC/C(C)=C/CO [Geraniol]
EC50 (HarmOR40): 27.8 µM
EC50 (HarmOR12): 27.6 µM

CC(=O)OC/C=C(\C)CCC=C(C)C [Geranyl acetate]
EC50 (HarmOR23): 5.1 µM
EC50 (HarmOR40; [2]): 7.69 µM

C=CC(C)(O)CCC=C(C)C (centres unmarked) [Linalool]
EC50 (HarmOR36; EC50, HarmOR36): 1.16 µM
EC50 (HarmOR12): 21.2 µM
response of the HarmOR repertoire (HarmOR repertoire): still responded

CCCC/C=C\CCCCCCCCCC=O [Z11-16: Ald]
ligand tuning of HarmOR42 (HarmOR42): not a ligand
EAG response of HarmOR42 knock-out mutants compared with wild-type moths [1]: no difference

CC/C=C\CC1=C(C)CCC1=O [cis-Jasmone]
EC50 (HarmOR27): 78.6 µM

CC(C)=CCCC(C)CCO (stereo not drawn) [β-Citronellol]
EC50 (HarmOR36; HarmOR36, read-out: EC50): 4.68 µM
EC50 (HarmOR12; HarmOR12, dose response in oocytes, unit M, read-out: EC50): 80.1 µM

CCCCCC1CCCC(=O)O1 (centres unmarked) [δ-Decanolactone]
EC50 (HarmOR31): 8.16 µM

(±)-Citronellal
EC50 (HarmOR27): 333 µM

Farnesene
EC50 (HarmOR23): 4.79 µM
EC50 (HarmOR23; listed as farnesene): < 10 µM
EC50 (HarmOR40; HarmOR40, dose response in oocytes, unit M printed in text only, listed as farnesene, read-out: EC50): < 10 µM
EC50 (HarmOR40; [2]): 7.9 µM
